≈ marks a conversion by molar mass, not a printed value. Where “and” joins values, the source holds several entries; their conditions need not be identical. Identical values can stand only once. Like-named read-outs stand apart in the source and are kept apart here.
Experiment: Thermodynamic solubility of cocrystals (HPLC quantitation)
Type: physicochemical
Details: for solubility at 24 h: thermodynamic from solid
Description: Base Buffer (FaSSGF), pH 1.6—Sodium chloride (2.03 g) was dissolved in Ca. 800 ml of deionised water in a 1 L volumetric flask. This solution was mixed thoroughly and then the pH adjusted to 1.6±0.05 with concentrated hydrochloric acid. The solution was then made to volume with deionised water and the pH recorded (pH 1.6).
FaSSGF Media—Phares SIF (simulated intestinal fluid) powder (0.06 g) was dissolved in Ca. 800 ml of base buffer (2.1.1) in a 1 L volumetric flask. This solution was mixed thoroughly and then made to volume with the same base buffer. The final pH was recorded (pH 1.7)
Acetate Base Buffer (FeSSIF), pH 5.0—Sodium hydroxide (11.90 g), acetic acid (8.25 ml) and sodium chloride (3.96 g) were dissolved in Ca. 800 ml of deionised water in a 1 L volumetric flask. This solution was mixed thoroughly and then the pH adjusted to 5.0±0.05 with 0.5M hydrochloric acid. The solution was then made to volume with deionised water and the pH recorded (pH 5.0)
FeSSIF Media—Phares SIF (simulated intestinal fluid) powder (1.12 g) was dissolved in Ca. 80 ml of base buffer (2.2.1) in a 100 ml volumetric flask. This solution was mixed thoroughly and then made to volume with the same base buffer. The final pH was recorded (pH 4.8)
Phosphate Base Buffer (FeSSIF), pH 6.5—Sodium hydroxide (0.41 g), sodium phosphate monobasic (3.95 g) and sodium chloride (6.49 g) were dissolved in Ca. 800 ml of deionised water in a 1 L volumetric flask. This solution was mixed thoroughly and then the pH adjusted to 6.5 f 0.05 with 0.5M hydrochloric acid. The solution was then made to volume with deionised water and the pH recorded (pH 6.5)
FaSSIF Media—Phares SIF (simulated intestinal fluid) powder (0.23 g) was dissolved in Ca. 80 ml of base buffer ([00300]) in a 100 ml volumetric flask. This solution was mixed thoroughly and then made to volume with the same base buffer. The final pH was recorded (pH 6.3)
DI Water (deionized water)—The pH was recorded (pH 6.1)
Thermodynamic Solubility—Sufficient sample was suspended in 0.5 ml media for a maximum anticipated concentration of Ca. 10 mg/ml of the free form of the compound. The resulting suspensions were then shaken at 25° C./750 rpm for 24 hours in DI H2O and at 37° C./750 rpm for 24 hours in simulated fluids. After equilibration, the appearance was noted, and the pH of the saturated solution was measured. Samples were then filtered through a glass ‘C’ fibre filter (Particle retention 1.2 μm), before dilution with buffer as appropriate.
Quantitation was by HPLC with reference to a standard solution of approximately 0.15 mg/ml. Different volumes of the standards and diluted sample solutions were injected. The solubility was calculated using the peak areas determined by integration of the peak found at the same retention time as the principal peak in the standard injection.
The results from the solubility measurements in deionized water (DI water), stimulated fasting state conditions in the gastric fluid (FaSGF), simulated fed state conditions in the small intestines (FeSSIF), and simulated fasting state conditions in the small intestines fluid (FaSSIF) are summarized in Table 16.

[1] = DI Water, shaken at 25° C./750 rpm for 24 hours, average
[2] = DI Water, shaken at 25° C./750 rpm for 24 hours, single replicate
[3] = FaSSGF, shaken at 37° C./750 rpm for 24 hours, average
[4] = FaSSGF, shaken at 37° C./750 rpm for 24 hours, single replicate
[5] = FaSSIF, shaken at 37° C./750 rpm for 24 hours, average
[6] = FaSSIF, shaken at 37° C./750 rpm for 24 hours, single replicate
[7] = FeSSIF, shaken at 37° C./750 rpm for 24 hours, average
[8] = FeSSIF, shaken at 37° C./750 rpm for 24 hours, single replicate

| SMILES | Average Solubility [1] [µg/mL] | Solubility [2] [µg/mL] | Average Solubility [3] [µg/mL] | Solubility [4] | Average Solubility [5] [µg/mL] | Solubility [6] [µg/mL] | Average Solubility [7] [µg/mL] | Solubility [8] | solubility at 24 h (deionized water, 25 °C, pH 6.1, water, DI Water, shaken at 25° C./750 rpm for 24 hours, average, read-out: Average Solubility) [µg/mL] | solubility at 24 h (deionized water, 25 °C, pH 6.1, water, DI Water, shaken at 25° C./750 rpm for 24 hours, single replicate, read-out: Solubility) [µg/mL] | solubility at 24 h (FaSSGF (simulated gastric fluid, fasted state), 37 °C, pH 1.7, fassgf or other biorelevant, FaSSGF, shaken at 37° C./750 rpm for 24 hours, average, read-out: Average Solubility) [µg/mL] | solubility at 24 h (FaSSGF (simulated gastric fluid, fasted state), 37 °C, pH 1.7, fassgf or other biorelevant, FaSSGF, shaken at 37° C./750 rpm for 24 hours, single replicate, read-out: Solubility) [µg/mL] | solubility at 24 h (FaSSIF (simulated intestinal fluid, fasted state), 37 °C, pH 6.3, fassif, FaSSIF, shaken at 37° C./750 rpm for 24 hours, average, read-out: Average Solubility) [µg/mL] | solubility at 24 h (FaSSIF (simulated intestinal fluid, fasted state), 37 °C, pH 6.3, fassif, FaSSIF, shaken at 37° C./750 rpm for 24 hours, single replicate, read-out: Solubility) [µg/mL] | solubility at 24 h (FeSSIF (simulated intestinal fluid, fed state), 37 °C, pH 4.8, fessif, FeSSIF, shaken at 37° C./750 rpm for 24 hours, average, read-out: Average Solubility) [µg/mL] |
| --- | --- | --- | --- | --- | --- | --- | --- | --- | --- | --- | --- | --- | --- | --- | --- |
| Cn1nc(OCC(F)F)cc1C(=O)Nc1cc([C@H]2C[C@@H](OC(=O)NC34CC(C3)C4)CO2)n[nH]1 [Compound 1-5 Form A] | 280 | 280 (≈ 600 µM) | 310 | 310 µg/mL (≈ 665 µM) | 250 | 240 (≈ 515 µM) | 820 | 840 µg/mL and 800 µg/mL |  |  |  |  |  |  |  |
| Cn1nc(OCC(F)F)cc1C(=O)Nc1cc([C@H]2C[C@@H](OC(=O)NC34CC(C3)C4)CO2)n[nH]1 [Compound 1-6 Form A] | 330 | 330 (≈ 707 µM) | 320 | 320 µg/mL (≈ 686 µM) | 310 | 310 (≈ 665 µM) | 700 | 660 µg/mL and 730 µg/mL |  |  |  |  |  |  |  |
| Cn1nc(OCC(F)F)cc1C(=O)Nc1cc([C@H]2C[C@@H](OC(=O)NC34CC(C3)C4)CO2)n[nH]1 [Componud I-3 Form A] |  | 300 (≈ 643 µM) | 390 | 380 µg/mL and 390 µg/mL |  |  | 490 | 620 µg/mL and 360 µg/mL | 300 (≈ 643 µM) | 290 (≈ 622 µM) |  |  |  |  |  |
| Cn1nc(OCC(F)F)cc1C(=O)Nc1cc([C@H]2C[C@@H](OC(=O)NC34CC(C3)C4)CO2)n[nH]1 [Compound I-2 Form A] | 210 | 210 (≈ 450 µM) |  | 350 µg/mL (≈ 750 µM) |  |  |  | 920 µg/mL and 850 µg/mL |  |  | 350 (≈ 750 µM) | 340 (≈ 729 µM) | 290 (≈ 622 µM) | 290 (≈ 622 µM) | 890 (≈ 1910 µM) |
| Cn1nc(OCC(F)F)cc1C(=O)Nc1cc([C@H]2C[C@@H](OC(=O)NC34CC(C3)C4)CO2)n[nH]1 [Compound I-4 Form A] | 290 | 290 (≈ 622 µM) | 370 | 370 µg/mL and 360 µg/mL | 290 | 280 (≈ 600 µM) | 880 | 940 µg/mL and 820 µg/mL |  |  |  |  |  |  |  |

— patent US20260041669A1, “SOLID FORMS OF A CDK INHIBITOR” (Relay Therapeutics, Inc., priority 2022, published 2026)
